Results from the OPERA property sets (Mansouri et al. 2018).
Where a SMILES comes first, the peptide text is derived from it. The star is where a group is joined. X1 = O=C(CCCCSc1[nH]cnc2ncnc1-2)*; NHtBu = CC(C)(C)N*

In order of falling logP:
1. CCCCCc1cc(CCCCN2CC(=O)c3ccccc3C2=O)c2c(c1)OC(C)(C)C1CC=C(C)CC21 (stereo not drawn)  9.07
2. Clc1cccc(-c2c(Cl)c(Cl)cc(Cl)c2Cl)c1Cl  7.25
3. Clc1cc(Cl)c(Cl)c(-c2cc(Cl)c(Cl)cc2Cl)c1  7.12
4. Clc1cc(Cl)cc(-c2c(Cl)cc(Cl)c(Cl)c2Cl)c1  7.1
5. Clc1cc(Cl)c(Cl)c(-c2cc(Cl)cc(Cl)c2Cl)c1  7.07
6. Clc1cc2c(c(Cl)c1Cl)Oc1ccc(Cl)c(Cl)c1O2  6.74
7. Clc1cc2c(cc1Cl)Oc1c(Cl)ccc(Cl)c1O2  6.39
8. C=C1CCC2C(C1)c1c(OC)cc(CCC)cc1OC2(C)C (stereo not drawn)  6.26
9. Clc1ccc(Cl)c(-c2cccc(Cl)c2Cl)c1  5.81
10. Fc1ccc(C(c2ccc(F)cc2)N2CCN(C/C=C/c3ccccc3)CC2)cc1  5.78
11. CCOCCN(CCOCC)CC(O)c1cc(-c2ccc(Cl)c(Cl)c2)nc2ccccc12 (stereo not drawn)  5.76
12. CC(=O)C12OC(C)(c3ccc(F)cc3)OC1CC1C3CCC4=CC(=O)CCC4(C)C3CCC12C (stereo not drawn)  5.7
13. Cc1c(Cl)c(Cl)c(Cl)c(Cl)c1Cl  5.62
14. CC(C)(C)C(=O)C(C#N)=NNc1cc(C(F)(F)F)cc(C(F)(F)F)c1  5.44
15. CC(C)CC(C)CC(C)OC(=O)c1ccc(NC(=O)N(C)C)cc1Cl (stereo not drawn)  5.15
16. CCC1CC2C3CCC4=CC(=O)CCC4C3CCC2(C)C1C(=O)CF (stereo not drawn)  4.66
17. CCCCOC(=O)C(C(=O)OCCCC)=C1SCCS1  4.6
18. C#CCOc1c(Cl)cc(NC=NOCCCC)cc1Cl  4.4
19. O=[N+]([O-])c1c(Cl)c(Cl)cc(Cl)c1Cl  4.38
20. CCOC(=O)C(C)Oc1ccc(Oc2cnc3cc(C(F)(F)F)ccc3n2)cc1 (stereo not drawn)  4.37
21. FC(F)(F)c1ccccc1C1OCC2ON=C(c3ccccc3)C2CO1 (stereo not drawn)  4.31
22. N#CC(C#N)=NNc1ccccc1C(F)(F)F  4.2
23. CCOc1ccc(C2(C(=O)OC)CC(F)(F)C2(F)F)cc1 (stereo not drawn)  4.06
24. CN(C)N=Nc1ccc(C(F)(F)F)cc1  4
25. Cc1cccc(Cl)c1Cl  3.96
26. CCSc1nc(NC(C)C)nc(NC(C)C)n1  3.81
27. S=C=NCCCc1ccccc1  3.8
28. ClC(Cl)(Cl)c1nc(C(Cl)(Cl)Cl)nc(C(Cl)(Cl)Cl)n1  3.75
29. C#CCOc1c(Cl)cc(NC=NOCC=C)cc1Cl  3.7
30. CCOC(=O)C(C)Oc1ccc(Oc2cnc3cc(F)ccc3n2)cc1 (stereo not drawn)  3.65
31. CC1CC2C3CCC4=CC(=O)C=CC4(C)C3(F)C(O)CC2(C)C1(O)C(=O)NC1CCCCC1 (stereo not drawn)  3.54
32. C#CCOc1c(Cl)cc(NC=NOCOCC)cc1Cl  3.5
33. CCOc1cccc(OCc2ccccc2CCCN2CCC(O)CC2)c1  3.5
34. CCc1cccc(NC(=O)Cc2ccccc2)c1  3.47
35. Cc1cccc(C)c1NC(=O)c1cccc(CN2CCCCC2)c1  3.47
36. O=c1[nH]c2ccccc2n1C1CCN(CC(O)C2COc3ccccc3O2)CC1 (stereo not drawn)  3.43
37. CCN(CC)Cc1ccc(C(=O)Nc2ccccc2C)cc1  3.31
38. C[Si](C)(C)C  3.24
39. CCC(=O)OC1(c2ccccc2)CCN(C)C(C)C1C (stereo not drawn)  3.13
40. CC1=CCC2C(C1)c1c(O)cc(NS(C)(=O)=O)cc1OC2(C)C (stereo not drawn)  3.12
41. N#CC(C#N)=NNc1ccccc1Br  3.11
42. Cc1cccc(C(=O)NN(C(=O)c2ccccc2Cl)C(C)(C)C)c1  3.11
43. CN(C)Cc1ccc(-c2cccc(Nc3[nH]ccc3[N+](=O)[O-])c2)o1  3.1
44. COc1ccc(OCc2ccccc2CCCN2CCC(O)CC2)cc1  3.1
45. CCCCCCC(=O)N1CCCC1=O  3.04
46. O=C(N/N=C/c1ccc[nH]1)Nc1ccccc1  2.96
47. c1nnn(C23CC4CC(CC(C4)C2)C3)n1  2.95
48. CCC(=O)C(CS(=O)(=O)c1ccccc1)c1ccc(Cl)cc1 (stereo not drawn)  2.69
49. CC(=NNC(=S)NNC(=S)Nc1ccccc1Cl)c1ccccn1  2.67
50. CCOC(CNC(=O)C1(O)C(C)CC2C3CCC4=CC(=O)C=CC4(C)C3(F)C(O)CC21C)OCC (stereo not drawn)  2.65
51. CN1C=CCC(C(=O)OC2CCC(NC(=O)N(CCCl)N=O)CC2)=C1 (stereo not drawn)  2.53
52. Cc1ccc(C(=O)OCCN(C)C)cc1  2.53
53. O=C(NN=Cc1ccco1)Nc1ccccc1  2.52
54. COc1ccc(COC(C(=O)O)c2ccccc2)cc1Cl (stereo not drawn)  2.45
55. COC(=O)c1ccccc1CS(=O)(=O)Nc1nc(OC)cc(OC)n1  2.4
56. Cc1nonc1Cc1ccc([N+](=O)[O-])cc1  2.21
57. O=S1(=O)NC(C2CCCCC2)=Nc2ccccc21  2.2
58. CCCCN1C(=O)C(=O)c2ccccc2C1=O  2.18
59. Cc1cn(C2CC(N=[N+]=[N-])C(COC(=O)CCNC(=O)C34CC5CC(CC(C5)C3)C4)O2)c(=O)[nH]c1=O (stereo not drawn)  2.14
60. CCNC(=O)C1(O)C(C)CC2C3CCC4=CC(=O)C=CC4(C)C3(F)C(O)CC21C (stereo not drawn)  2.07
61. CC1=C(C(=O)O)N2C(=O)C(NC(=O)C(OC(=O)C(C)C)c3ccccc3)C2SC1 (stereo not drawn)  2.05
62. C[C@H]1OC(O[C@H]2[C@@H](O)CC(O[C@H]3[C@@H](O)CC(O[C@H]4CC[C@@]5(C)[C@H](CC[C@@H]6[C@@H]5CC[C@]5(C)[C@@H](C7=CC(=O)OC7)[C@@H](OC=O)C[C@]65O)C4)O[C@@H]3C)O[C@@H]2C)C[C@H](O)[C@@H]1O (stereo partly drawn)  2.04
63. ON=Cc1nnc(-c2ccccc2)o1  2.03
64. Cc1ncc([N+](=O)[O-])n1CCNC(=O)OC1CCCCC1  2.01
65. O=C(O)C(OCc1ccccc1)c1ccccc1 (stereo not drawn)  2
66. CC(C)(C)C(=O)CC(C(O)C(C)(C)C)n1cncn1 (stereo not drawn)  1.95
67. CC1=NCCC1  1.87
68. N#CCc1ccc(O)c2ncccc12  1.81
69. Cn1c([N+](=O)[O-])cnc1COc1ccc(Cl)cc1  1.8
70. CCN1C(=O)C(=O)c2ccc(Cl)cc2C1=O  1.79
71. CN(CCCn1ccnc1C=NO)S(=O)(=O)C(F)(F)F  1.77
72. OCC1COC(Cn2cncn2)(c2ccc(Cl)cc2Cl)O1 (stereo not drawn)  1.76
73. COc1ccccc1NC(=O)OCCN1CCOCC1  1.73
74. Cc1ccc(-n2ccc(=O)c(O)c2C)cc1  1.72
75. CC(C)(C)c1ccc2c(c1)OCCOCCOCCOCCOCCO2  1.71
76. CCCN1C(=O)C(=O)c2ccccc2C1=O  1.6
77. Cn1c([N+](=O)[O-])cnc1-c1ccccc1  1.58
78. COC1=C(C)C(=O)c2c(c(COC(N)=O)c3n2CCC3OC(C)=O)C1=O (stereo not drawn)  1.54
79. CNC(=O)C1(O)C(C)CC2C3CCC4=CC(=O)C=CC4(C)C3(F)C(O)CC21C (stereo not drawn)  1.54
80. CN(CC1(C)CCCO1)S(=O)(=O)c1ccc(Cl)c(S(N)(=O)=O)c1 (stereo not drawn)  1.54
81. O=S1(=O)NC(C2CC=CC2)=Nc2ccccc21  1.53
82. COC(=O)c1c(C)[nH]c(-c2ncccc2Cl)c1C(=O)OC  1.51
83. CN1CC(O)N(c2nnc(C(C)(C)C)s2)C1=O (stereo not drawn)  1.49
84. O=C(Cc1ccccc1)NCCNCC(O)COCc1ccccc1 (stereo not drawn)  1.45
85. CCN1C(=O)C(=O)c2c(Cl)cccc2C1=O  1.43
86. CCOC(=O)Oc1cccc(C2(C(=O)CC)CCN(C)CC2)c1  1.29
87. COc1ccc(-n2ccc(=O)c(O)c2C)cc1  1.27
88. CCCCOC(=O)NCCn1c([N+](=O)[O-])cnc1C  1.22
89. CN(C)C(=O)COC(=O)c1cc(S(N)(=O)=O)c(Cl)cc1NCc1ccco1  1.18
90. CN(C)N=Nc1ccc(S(=O)(=O)CCO)cc1  1.15
91. O=C1OC(O)C(C(Cl)Cl)=C1Cl (stereo not drawn)  1.13
92. COCCCNC(=S)C(F)(F)Cn1cnc([N+](=O)[O-])n1  1.1
93. C1CC2=NOS3=C2C(=NO3)C1  1.1
94. O=C1NC(=O)N(Cc2ccccc2)C(=O)C1=O  1.02
95. CCC(=O)C1(c2cccc(O)c2)CCN(C)CC1  1.02
96. CC(C)OC(=O)c1cnc2n(c1=O)C(C)CCC2 (stereo not drawn)  0.99
97. NC(=Nc1ccccc1)NN=Cc1ccc2ccccc2n1  0.99
98. O=[N+]([O-])C=C1NCCN1Cc1ccc(Cl)cc1  0.99
99. CCN1C(=O)C(=O)c2cccc(OC)c2C1=O  0.94
100. CCCCOC(=O)n1cc(F)c(=O)[nH]c1=O  0.89
101. CS(=O)(=O)N(c1ccccc1[N+](=O)[O-])S(C)(=O)=O  0.81
102. CS(=O)(=O)ON1C(=O)c2ccc(N)cc2C1=O  0.8
103. Cc1[nH]cnc1CSCCNc1cc(=O)cc[nH]1  0.8
104. CCOc1ncnc2c1ncn2C1OC(CO)CC1F (stereo not drawn)  0.8
105. CCOC(=O)C(CC)C(CO)Cc1cncn1C (stereo not drawn)  0.73
106. OCC1CC(F)C(n2cnc3c(I)ncnc32)O1 (stereo not drawn)  0.63
107. Cn1c([N+](=O)[O-])cnc1Cc1ccc(C(N)=O)cc1  0.55
108. OCC1CC(F)C(n2cnc3c(Br)ncnc32)O1 (stereo not drawn)  0.44
109. CC(=O)NC(CCCN)C(=O)NC(Cc1ccccc1)C(N)=O (stereo not drawn)  0.41
110. O=c1[nH]c(Nc2ccccc2)nc2c1ncn2CC(O)CO (stereo not drawn)  0.4
111. CC(C)(C)C(=O)OCCOCn1cnc2c(=O)[nH]c(N)nc21  0.3
112. O=c1cccccc1  0.26
113. CC(C)N(C=Nc1ccn(C2CC(O)C(CO)O2)c(=O)n1)C(C)C (stereo not drawn)  0.17
114. CCC(C)C(NC(=O)C(CC(C)C)NC(C)=O)C(=O)NC(CCC(=O)O)C(N)=O (stereo not drawn) (Ac-Leu-Ile-Glu-NH2; configuration not given here)  0.07
115. O=C(OCCCl)n1cc(F)c(=O)[nH]c1=O  0.02
116. COc1c([N+](=O)[O-])nc(C)n1C  -0.09
117. COCCNC(=O)C(F)(F)Cn1cnc([N+](=O)[O-])n1  -0.15
118. CNC(=C[N+](=O)[O-])NCCSCc1nccs1  -0.15
119. O=[N+]([O-])N=C1NCCN1Cc1cccnc1  -0.19
120. CCOC(=O)CNC(=O)CNC(=O)CNC(=O)CNC(=O)CCCCSc1[nH]cnc2ncnc1-2 (X1-GGGG-OEt)  -0.23
121. CC(=O)NC(C)C(=O)N1CCCC1C(=O)NC(C)C(=O)NC(C)(C)C (stereo not drawn) (Ac-Ala-Pro-Ala-NHtBu; configuration not given here)  -0.39
122. CC(CO)OC(C)CO (stereo not drawn)  -0.67
123. COC(=O)n1cc(F)c(=O)[nH]c1=O  -0.68
124. CN(C)C=Nc1ccn(C2CC(O)C(CO)O2)c(=O)n1 (stereo not drawn)  -1.54
125. O=c1nc(N=CN2CCOCC2)ccn1C1OC(CO)C(O)C1O (stereo not drawn)  -1.66
126. CN(C)C=Nc1ccn(C2OC(CO)C(O)C2O)c(=O)n1 (stereo not drawn)  -1.68
127. CC(=O)NC(CCC(=O)O)C(N)=O (stereo not drawn)  -2.47
128. N=c1ccn2c(n1)OC1C(O)C(CCl)OC12 (stereo not drawn)  -3.1
